Earlier results on one compound are cited in PMC7259638, “Characterization of the intestinal absorption of morroniside from Cornus officinalis Sieb. et Zucc via a Caco-2 cell monolayer model” (PLoS ONE, 2020).

The subject of the data set is Caco-2 cell model. Also noted: method as in PMID 30671130. The note with it: cited from earlier work.

As to `COC(=O)C1=CO[C@@H](O[C@@H]2O[C@H](CO)[C@@H](O)[C@H](O)[C@H]2O)[C@@H]2[C@@H](C)[C@@H](O)C[C@H]12` [loganin], where the note is “human intestinal Caco-2 cell model”, the “intestinal permeability (in words)” value is “good intestinal permeability”. In addition, the BCRP substrate status entry (previous study) is on record as “substrate of BCRP”.
